Tests used:
[1] = Determination of pharmacokinetic parameters after oral gavage of prodrug; assay type: in vivo, dogs; conditions: plasma; prodrug dosed orally by gavage, dose equivalent to 0.127 mmol; hplc
Description: Groups of three dogs were used for each dose level of an experimental compound and one (1) non-cannulated dog was used as a vehicle control. Animals were allowed normal access to chow and water throughout the experiment. The prodrug N-[4-amino-5-(5-iodo-2-isopropyl-4-methoxy-phenoxy)-pyrimidin-2-yl]-2-dipropylamino-acetamide was formulated as an aqueous solution or an aqueous suspension and a dose equivalent to (0.127 mmol) was administered orally by gavage. A blood sample (0.3 mL) was collected from the […] at 0.5, 1, 2, 3, 4, 6 and 8 hours after via the jugular cannula. A sample of at least 0.3 mL of blood was withdrawn from the untreated animals 3 hours after dosing. After 24 hours from dosing, a blood sample was collected from all treated and control animals. Potassium oxalate/NaF was added to the samples which were stored on ice during sampling procedure. The samples were spun in a refrigerated centrifuge at −4° C. as soon as possible and the plasma samples were stored −20° C. immediately after centrifugation and later transferred to a −80° C. freezer until analysis. The concentration of the prodrug N-[4-amino-5-(5-iodo-2-isopropyl-4-methoxy-phenoxy)-pyrimidin-2-yl]-2-dipropylamino-acetamide and the parent compound 5-(5-Iodo-2-isopropyl-4-methoxy-phenoxy)-pyrimidine-2,4-diamine was determined by hplc.

rat P2X3 receptor = target: T1, rat P2X3 receptor (Rattus norvegicus, UniProt P49654); experiment: P2X3 FLIPR (Fluorometric Imaging Plate Reader) assay; assay type: cell-based; conditions: CHO-K1 cells transfected with rat P2X3; agonist α,β-meATP 1 μM; FLIPR calcium fluorescence
T1 construct: expressed in transfected cells; host or cells: CHO-K1
T1 sequence (P49654 1-397): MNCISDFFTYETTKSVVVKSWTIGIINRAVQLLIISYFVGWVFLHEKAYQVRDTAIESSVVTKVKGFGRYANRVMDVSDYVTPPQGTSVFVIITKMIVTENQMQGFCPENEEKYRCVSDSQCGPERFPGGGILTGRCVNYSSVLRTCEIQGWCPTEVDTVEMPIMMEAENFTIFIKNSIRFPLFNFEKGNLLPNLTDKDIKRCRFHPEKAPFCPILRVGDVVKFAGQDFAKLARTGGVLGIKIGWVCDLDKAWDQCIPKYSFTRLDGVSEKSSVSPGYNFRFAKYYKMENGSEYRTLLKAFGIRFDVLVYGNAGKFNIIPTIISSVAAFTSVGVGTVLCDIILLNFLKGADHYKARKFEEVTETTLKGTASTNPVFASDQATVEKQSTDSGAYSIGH
Description: (§1) CHO-K1 cells were transfected with cloned rat P2X3 or human P2X2/3 receptor subunits and passaged in flasks. 18-24 hours before the FLIPR experiment, cells were released from their flasks, centrifuged, and resuspended in nutrient medium at 2.5×10^5 cells/ml. The cells were aliquoted into black-walled 96-well plates at a density of 50,000 cells/well and incubated overnight in 5% CO2 at 37° C. On the day of the experiment, cells were washed in FLIPR buffer (calcium- and magnesium-free Hank's balanced salt solution, 10 mM HEPES, 2 mM CaCl2, 2.5 mM probenecid; FB). Each well received 100 μl FB and 100 μl of the fluorescent dye Fluo-3 AM [2 μM final conc.]. […]
(§2) Test compounds (dissolved in DMSO at 10 mM and serially diluted with FB) or vehicle were added to each well (25 μl of a 4× solution) and allowed to equilibrate for 20 minutes at room temperature. The plates were then placed in the FLIPR and a baseline fluorescence measurement (excitation at 488 nm and emission at 510-570 nm) was obtained for 10 seconds before a 100 μl/well agonist or vehicle addition. […] Fluorescence was measured for an additional 2 minutes at 1 second intervals after agonist addition. A final addition of ionomycin (5 μM, final concentration) was made to each well of the FLIPR test plate to establish cell viability and maximum fluorescence of dye-bound cytosolic calcium. […]

human P2X2/3 receptor = target: T2, human P2X2/3 receptor (Homo sapiens, UniProt P56373+Q9UBL9); experiment: P2X2/3 FLIPR (Fluorometric Imaging Plate Reader) assay; assay type: cell-based; conditions: CHO-K1 cells transfected with human P2X2/3; agonist α,β-meATP 5 μM; FLIPR calcium fluorescence
T2 construct: expressed in transfected cells; host or cells: CHO-K1
T2 sequence (Q9UBL9 1-471): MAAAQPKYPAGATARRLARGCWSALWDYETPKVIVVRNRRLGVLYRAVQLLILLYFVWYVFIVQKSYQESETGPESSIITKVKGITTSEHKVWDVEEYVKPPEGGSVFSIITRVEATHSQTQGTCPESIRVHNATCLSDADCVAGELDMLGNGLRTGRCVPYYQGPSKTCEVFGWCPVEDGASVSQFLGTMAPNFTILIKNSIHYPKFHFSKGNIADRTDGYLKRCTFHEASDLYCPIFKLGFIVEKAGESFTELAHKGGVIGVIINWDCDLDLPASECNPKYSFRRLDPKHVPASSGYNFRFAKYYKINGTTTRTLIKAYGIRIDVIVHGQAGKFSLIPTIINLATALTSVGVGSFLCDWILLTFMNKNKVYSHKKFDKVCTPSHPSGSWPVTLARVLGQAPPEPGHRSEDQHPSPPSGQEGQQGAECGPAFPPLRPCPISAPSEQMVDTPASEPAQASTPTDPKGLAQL
T2 sequence (P56373 1-397): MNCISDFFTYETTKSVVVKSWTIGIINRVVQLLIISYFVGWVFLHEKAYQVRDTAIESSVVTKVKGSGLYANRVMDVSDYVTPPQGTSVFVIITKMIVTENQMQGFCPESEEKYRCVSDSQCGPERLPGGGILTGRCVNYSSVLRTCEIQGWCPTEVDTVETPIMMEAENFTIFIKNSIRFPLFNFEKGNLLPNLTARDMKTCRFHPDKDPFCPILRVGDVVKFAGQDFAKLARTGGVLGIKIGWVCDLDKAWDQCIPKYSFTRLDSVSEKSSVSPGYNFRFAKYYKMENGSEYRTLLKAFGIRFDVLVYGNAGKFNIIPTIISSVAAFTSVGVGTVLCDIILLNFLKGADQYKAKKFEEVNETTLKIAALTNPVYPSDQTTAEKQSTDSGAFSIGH
Description: as §1, §2

| AUC of the prodrug [1] [ng·h/mL] | Cmax of the prodrug [1] [ng/mL] | melting point [°C] | pIC50 for the P2X3 receptor (rat P2X3 receptor) | pIC50 for the P2X2/3 receptor (human P2X2/3 receptor) | SMILES |
| --- | --- | --- | --- | --- | --- |
| 21.1 | 15.2 | 129 to 131 | – | – | CCCN(CCC)CC(=O)Nc1ncc(Oc2cc(I)c(OC)cc2C(C)C)c(N)n1 [Compound 2, N-[4-Amino-5-(5-iodo-2-isopropyl-4-methoxy-phenoxy)-pyrimidin-2-yl]-2-dipropylamino-acetamide] |
| – | – | 176.5 to 178 | – | – | COc1cc(C(C)C)c(Oc2cnc(NC(=O)CNC3CCCC3)nc2N)cc1I [Compound 3, N-[4-Amino-5-(5-iodo-2-isopropyl-4-methoxy-phenoxy)-pyrimidin-2-yl]-2-cyclopentylamino-acetamide] |
| – | – | – | approximately 7.8 | ~7.4 | COc1cc(C(C)C)c(Oc2cnc(NC(=O)C(C)C)nc2N)cc1I [N-[4-Amino-5-(5-iodo-2-isopropyl-4-methoxy-phenoxy) -pyrimidin-2-yl]-isobutyramide] |

Reference: patent publication US7589090B2, “Diaminopyrimidines as P2X3 and P2X2/3 modulators” (Roche Palo Alto LLC, priority 2007, dated 2009)
